Drawing on DBAASP, this text covers MIC for four compounds.

Some test systems named below: Escherichia coli 1106; Salmonella typhimurium; Fusarium culmorum; Fusarium oxysporum L; Neurospora crassa; Trichoderma viride; Pseudomonas syringae; Bacillus subtilis; Fusarium oxysporum; Stemphylium sp.; Micrococcus luteus; Fusarium oxysporum M; Staphylococcus aureus; Escherichia coli D22; Escherichia coli D31; Aerococcus viridans; Aspergillus fumigatus; Alternaria brassicicola; Botrytis cinerea; Alternaria dauci; Fusarium haematococcum; Candida albicans 01U; Trichophyton rubrum; Candida parapsilosis; Candida albicans 38U.

Common to all, as to experiment: ≥ marks a high value that may be exact or a test limit, other limits are often not marked, values filed in µg/mL are converted to µM
Test [1] concerns Xanthomonas vesicatoria 687.3.
Test [2] concerns Xanthomonas campestris pv. campestris.
Test [3] concerns Pseudomonas syringae pv. Pisi.
Test [4] concerns Pseudomonas syringae pv. phaseolicola.
The subject of test [5] is Xanthomonas vesicatoria B229RI.
Test [6] relates to Pseudomonas syringae pv. Maculicola.
Test [7] relates to Pseudomonas syringae pv. Valerianella.
In test [8] the test system is Clavibacter michiganensis subsp. michiganensis.
Test [9] deals with Pseudomonas syringae pv. syringae.
Test [10] relates to Pseudomonas aeruginosa ATCC 27853.
Test [11] has as its system Pseudomonas aeruginosa PA006.
For test [12], the system named is Staphylococcus aureus ATCC 29313.
Test [13] concerns Pseudomonas aeruginosa Pa4-SA2.
The test system of test [14] is Salmonella enterica subsp. enterica serovar Typhimurium ATCC 14028.
In test [15] the test system is Pseudomonas aeruginosa Pa1-SA2.
Test [16] concerns Escherichia coli ATCC 25922.
Test [17] concerns Pseudomonas aeruginosa PAO1.
In test [18] the test system is Klebsiella pneumoniae ATCC 700603.
The subject of test [19] is Staphylococcus aureus MRSA-16.
The test system of test [20] is Staphylococcus aureus ATCC 25923.
For test [21], the system named is Staphylococcus aureus MRSA-G.
The subject of test [22] is Cryptococcus neoformans L30.
The test system of test [23] is Trichophyton mentagrophytes.
Test [24] deals with Cryptococcus neoformans L26.

Molecules are shown by their SMILES. In brackets after ≈: the same amount, converted by molar mass. Several values for one entry are separate records, joined by “and”; a condition that tells them apart may be missing. Equal entries are not always repeated. Bounds are passed on as bounds.

The term MIC denotes the lowest concentration found to suppress growth. The low end stands for greater potency, the high end for weaker potency. Regarding `CC[C@H](C)[C@@H]1NC(=O)[C@H](CCCCN)NC(=O)[C@H]([C@@H](C)CC)NC(=O)[C@H](CCC(N)=O)NC(=O)[C@H](CCCN=C(N)N)NC(=O)[C@@H](NC(=O)[C@@H](NC(=O)[C@H](CO)NC(=O)[C@@H](N)CCCN=C(N)N)C(C)C)CSSC[C@@H](C(=O)N[C@H](C(=O)N[C@@H](CC(N)=O)C(=O)N[C@@H](CCCN=C(N)N)C(=O)N2CCC[C@H]2C(=O)N[C@@H](Cc2ccc(O)cc2)C(=O)O)[C@@H](C)O)NC(=O)[C@H](CCCCN)NC(=O)[C@H](Cc2ccc(O)cc2)NC(=O)[C@H](Cc2ccc(O)cc2)NC(=O)[C@@H]2CSSC[C@H](NC1=O)C(=O)N[C@@H](CCCN=C(N)N)C(=O)N[C@@H](CCCN=C(N)N)C(=O)N[C@@H](CCCN=C(N)N)C(=O)NCC(=O)NCC(=O)N2` [RSVCRQIKICRRRGGCYYKCTNRPY], the minimal inhibitory concentration (MIC) in test [1] came to 2.12 µM (≈ 6.53 µg/mL); against Escherichia coli 1106, 9.49 µM (≈ 29.2 µg/mL); against Salmonella typhimurium it was 4.24 µM (≈ 13.1 µg/mL); with Fusarium culmorum it was 4.24 µM (≈ 13.1 µg/mL); in [2], 4.24 µM (≈ 13.1 µg/mL); in test [3], 9.49 µM (≈ 29.2 µg/mL). The minimal inhibitory concentration (MIC) in the test on Fusarium oxysporum L was found to be 2.83 µM (≈ 8.7 µg/mL); against Neurospora crassa it was 8.49 µM (≈ 26.1 µg/mL); against Trichoderma viride it was 8.49 µM (≈ 26.1 µg/mL); against Pseudomonas syringae it was 2.12 µM (≈ 6.53 µg/mL); against Bacillus subtilis, 2.12 µM (≈ 6.53 µg/mL); in [4] it was 2.12 µM (≈ 6.53 µg/mL). Moreover, the MIC was 8.49 µM (≈ 26.1 µg/mL) with Fusarium oxysporum; 5.66 µM (≈ 17.4 µg/mL) in the test on Stemphylium sp.; 0.949 µM (≈ 2.92 µg/mL) in the test with Micrococcus luteus; 2.83 µM (≈ 8.7 µg/mL) in the test with Fusarium oxysporum M; 21.2 µM (≈ 65.3 µg/mL) with Staphylococcus aureus; 30 µM (≈ 92.3 µg/mL) against Escherichia coli D22. The minimal inhibitory concentration (MIC) was 2.12 µM (≈ 6.53 µg/mL) in test [5]; 4.24 µM (≈ 13.1 µg/mL) in the test on Escherichia coli D31; 0.424 µM (≈ 1.31 µg/mL) in the test with Aerococcus viridans; no less than 35.4 µM in the test on Aspergillus fumigatus; 4.24 µM (≈ 13.1 µg/mL) with Alternaria brassicicola; 4.24 µM (≈ 13.1 µg/mL) in test [6]. Further, the minimum inhibitory concentration (MIC) in the test on Botrytis cinerea is 8.49 µM (≈ 26.1 µg/mL); in [7] it was 18.2 µM (≈ 55.9 µg/mL); in the test on Alternaria dauci, 11.3 µM (≈ 34.8 µg/mL); against Fusarium haematococcum, 8.49 µM (≈ 26.1 µg/mL); in test [8], 9.49 µM (≈ 29.2 µg/mL); in test [9], 18.2 µM (≈ 55.9 µg/mL).

Regarding `CC[C@H](C)[C@H](NC(=O)[C@H](CCCCN)NC(=O)CNC(=O)[C@H](CCSC)NC(=O)[C@H](C)NC(=O)[C@H](Cc1cnc[nH]1)NC(=O)[C@H](C)NC(=O)[C@@H](NC(=O)[C@H](CC(C)C)NC(=O)[C@H](CCC(N)=O)NC(=O)[C@H](CCCN=C(N)N)NC(=O)CNC(=O)[C@H](C)NC(=O)[C@H](CC(=O)O)NC(=O)[C@H](CCCCN)NC(=O)[C@@H](NC(=O)[C@@H](NC(=O)[C@H](CC(=O)O)NC(=O)[C@H](Cc1ccccc1)NC(=O)[C@@H](NC(=O)CN)C(C)C)[C@@H](C)CC)[C@@H](C)CC)C(C)C)C(=O)N[C@@H](C)C(=O)N[C@@H](CCC(=O)O)C(=O)N[C@@H](CCCCN)C(=O)N[C@H](C(N)=O)C(C)C` [GVFDIIKDAGRQLVAHAMGKIAEKV], the MIC is greater than 192 µM in [10]; 12 µM (≈ 32 µg/mL) in test [11]; no less than 300 µM in test [12]; no less than 48 µM in test [13]; greater than 300 µM in test [14]; no less than 96 µM in test [15]. The minimal inhibitory concentration (MIC) in [16] was 300 µM (≈ 800 µg/mL); in [17], 192 µM (≈ 512 µg/mL); in test [18] it was greater than 300 µM.

As for `CC[C@H](C)[C@H](NC(=O)[C@H](C)NC(=O)[C@H](CCCCN)NC(=O)[C@@H](NC(=O)CNC(=O)CNC(=O)[C@H](Cc1c[nH]c2ccccc12)NC(=O)[C@H](Cc1ccccc1)NC(=O)[C@H](CCCCN)NC(=O)[C@H](CCCCN)NC(=O)[C@H](Cc1ccccc1)NC(=O)[C@@H](N)Cc1ccccc1)C(C)C)C(=O)N[C@@H](Cc1ccccc1)C(=O)N[C@@H](CCCCN)C(=O)NCC(=O)N[C@@H](C)C(=O)N[C@@H](CCCN=C(N)N)C(=O)N[C@@H](CCCCN)C(=O)NCC(=O)N[C@@H](Cc1c[nH]c2ccccc12)C(=O)N[C@@H](CCCCN)C(=O)O` [FFKKFWGGVKAIFKGARKGWK], the MIC in test [19] was 4 µM (≈ 9.95 µg/mL); in [20], 4 µM and > 2 µM; in [21], 4 µM (≈ 9.95 µg/mL); in test [16], 2 µM and > 1 µM.

Regarding `CC[C@H](C)[C@H](NC(=O)[C@H](CC(C)C)NC(=O)[C@H](CCC(=O)O)NC(=O)[C@H](CO)NC(=O)[C@H](CCCN=C(N)N)NC(=O)[C@@H](N)CO)C(=O)N[C@H](C(=O)N[C@@H](Cc1cnc[nH]1)C(=O)N[C@@H](CCC(N)=O)C(=O)N[C@@H](CCCN=C(N)N)C(=O)N[C@@H](CCSC)C(=O)N[C@@H](CCCCN)C(N)=O)C(C)C` [SRSELIVHQRMK], the MIC with Candida albicans 01U is 21.6 µM (≈ 32 µg/mL); in [22], no less than 173 µM; in the test with Trichophyton rubrum, 21.6 µM (≈ 32 µg/mL); with Candida parapsilosis it was no less than 173 µM; in test [23], no less than 173 µM; in test [24] it was no less than 173 µM. The MIC in the test on Candida albicans 38U came to 21.6 µM (≈ 32 µg/mL).
